Results on two molecules are retold here after patent US20070098770A1, “Cosmetic path using method thereof, and cosmetic path package” (priority 2003, published 2007).

For series [1] the following is noted: cited from earlier work.
The nature of series [2]: Stability of vitamin C dissolved in water. In kind it is physicochemical. Conditions: eight hours after it is dissolved in water.

In the case of `O=C1O[C@H]([C@@H](O)CO)C(O)=C1O` [Vitamin C, L-ascorbic acid], the “volume of an absolute alcohol in which 1 g dissolves” value in series [1] (absolute alcohol) was 50 mL. Besides, in series [1] (alcohol), the “volume of an alcohol in which 1 g dissolves” value was 30 mL. The “volume of glycerol in which 1 g dissolves” value in series [1] (glycerol) is 100 mL. In addition, in series [1] (propylene glycol), the “volume of propylene glycol in which 1 g dissolves” value is 20 mL. For the same molecule, in series [1] (water), the “volume of water in which 1 g dissolves” value is 3 mL. Further, the “portion oxidized into dehydroascorbic acid and deactivated by hydrolysis” value in series [2] is “at least 10%”.

In the case of tocopherol [vitamin E], in series [1] (alcohol (95% in ethanol)), the “solubility in an alcohol” value is on record as “readily soluble”. In series [1] (water), the solubility in water entry was “almost insoluble”.
